Reference: patent publication US5250518A, “O-methyl derivatives of azithromycin A” (priority 1990, dated 1993)
In brackets after ≈: the same amount, converted by molar mass. Read-outs that look alike come from different tables or passages of the source. One block for each compound: values may come before it.

Columns and labels:
[1] = system: Sarcina lutea ATCC-9341; test: Antibacterial in vitro activity, tube dilution method (Table 1); assay type: cell-based; settings: Micrococcus luteus, ATCC9341, Brain hearth bouillon, 24 hours, 37° C.
Protocol: (§1) The preliminary antibacterial in vitro activity of 6-O-methyl-azithromycin A (Ii) was determined on a series of gram-positiveand gram-negative test bacteria and clinical isolates in comparison with erythromycin A. The assessment was performed by the "tube dilution" method. In the investigation there were used 24-hours cultures in "brain hearth bouillon" of standard strains and freshly isolated strains from a clinical sample.

[2] = system: Escherichia coli ATCC 10536; test: as above; assay type: cell-based; settings: ATCC10536, Brain hearth bouillon, 24 hours, 37° C.
Protocol: as §1

[3] = system: Pseudomonas aeruginosa NCTC-10490; test: as above; assay type: cell-based; settings: NCTC10490, 24 h
Protocol: as §1, with “O-methyl derivatives of azithromycin A of the formulae (Ii)-(Il) and their pharmaceutically acceptable addition salts have a potent antimicrobial activity. The preliminary” for “The preliminary”
(§2) Substrate: Brain hearth bouillon
(§3) Incubation: 24 hours, 37° C.
(§4) MIC: Minimal Inhibitory Concentration (μg/mL)
(§5) MBC: Minimal Bactericidal Concentration (μg/mL)

[4] = system: Streptococcus faecalis ATCC-8043; test: as above; assay type: cell-based; settings: Enterococcus faecalis, ATCC8043, 24 h
Protocol: as §1, with “O-methyl derivatives of azithromycin A of the formulae (Ii)-(Il) and their pharmaceutically acceptable addition salts have a potent antimicrobial activity. The preliminary” for “The preliminary”
as §2, §3, §4, §5

[5] = system: Staphilococcus aureus ATCC 6538-P; test: as above; assay type: cell-based; settings: 24 h
Protocol: as §1, with “O-methyl derivatives of azithromycin A of the formulae (Ii)-(Il) and their pharmaceutically acceptable addition salts have a potent antimicrobial activity. The preliminary” for “The preliminary”
as §2, §3, §4, §5

[6] = system: Klebsiella pneumoniae NCTC-10499; test: as above; assay type: cell-based; settings: NCTC10499, 24 h
Protocol: as §1, with “O-methyl derivatives of azithromycin A of the formulae (Ii)-(Il) and their pharmaceutically acceptable addition salts have a potent antimicrobial activity. The preliminary” for “The preliminary”
as §2, §3, §4, §5

[7] = cited from earlier work
[8] = system: Staphylococcus saprophyticus 3947; test: Antibacterial in vitro activity against clinical isolates, tube dilution method (Table 2); assay type: cell-based; settings: clinical isolate, Brain hearth bouillon, 24 hours, 37° C.
Protocol: as §1, with “O-methyl derivatives of azithromycin A of the formulae (Ii)-(Il) and their pharmaceutically acceptable addition salts have a potent antimicrobial activity. The preliminary” for “The preliminary”
as §2, §3, §4
(§6) MBC: Minimal Bactericidal Concentation (μg/mL)

[9] = system: Streptococcus faecalis 10390; test: as above; assay type: cell-based; settings: Enterococcus faecalis, clinical isolate, Brain hearth bouillon, 24 hours, 37° C.
Protocol: as §1, with “O-methyl derivatives of azithromycin A of the formulae (Ii)-(Il) and their pharmaceutically acceptable addition salts have a potent antimicrobial activity. The preliminary” for “The preliminary”
as §2, §3, §4, §6

[10] = system: Staphylococcus aureus 10099; test: as above; assay type: cell-based; settings: clinical isolate, Brain hearth bouillon, 24 hours, 37° C.
Protocol: as §1, with “O-methyl derivatives of azithromycin A of the formulae (Ii)-(Il) and their pharmaceutically acceptable addition salts have a potent antimicrobial activity. The preliminary” for “The preliminary”
as §2, §3, §4, §6

[11] = system: Staphylococcus aureus 10097; test: as above; assay type: cell-based; settings: clinical isolate, Brain hearth bouillon, 24 hours, 37° C.
Protocol: as §1, with “O-methyl derivatives of azithromycin A of the formulae (Ii)-(Il) and their pharmaceutically acceptable addition salts have a potent antimicrobial activity. The preliminary” for “The preliminary”
as §2, §3, §4, §6

[12] = system: Haemophylus influenzae 4028; test: as above; assay type: cell-based; settings: clinical isolate, Brain hearth bouillon, 24 hours, 37° C.
Protocol: as §1, with “O-methyl derivatives of azithromycin A of the formulae (Ii)-(Il) and their pharmaceutically acceptable addition salts have a potent antimicrobial activity. The preliminary” for “The preliminary”
as §2, §3, §4, §6

[13] = system: Streptococcus pneumoniae 4050; test: as above; assay type: cell-based; settings: clinical isolate, Brain hearth bouillon, 24 hours, 37° C.
Protocol: as §1, with “O-methyl derivatives of azithromycin A of the formulae (Ii)-(Il) and their pharmaceutically acceptable addition salts have a potent antimicrobial activity. The preliminary” for “The preliminary”
as §2, §3, §4, §6

[14] = system: ATCC 6538P; test: Antibacterial in vitro activity in comparison with azithromycin (Table 3); assay type: cell-based, Staphilococcus aureus
Source text: (§7) In Table 3 there are represented in vitro tests of 6-O-methyl- (Ii), 6,11-di-O-methyl- (Ij), 11-O-methyl- (Ik) and 6,11,4"-tri-O-methyl-azithromycin A (II) in comparison with azithromycin.

[15] = system: ATCC 8043; test: as above; assay type: cell-based; settings: Staphylococcus faecalis, ATCC8043; Brain hearth Bouillon, 24-48 hours, 37° C., inoculum 10^-5 -10^-6 cfu/mL
Source text: as §7

[16] = system: Corynebacterium xerosis NCTC 9755; test: as above; assay type: cell-based; settings: NCTC9755, Brain hearth Bouillon, 24-48 hours, 37° C., inoculum 10^-5 -10^-6 cfu/mL
Source text: as §7

[17] = system: Staphylococcus epidermidis ATCC 12228; test: as above; assay type: cell-based; settings: ATCC12228, Brain hearth Bouillon, 24-48 hours, 37° C., inoculum 10^-5 -10^-6 cfu/mL
Source text: as §7

[18] = system: ATCC 10240; test: as above; assay type: cell-based; settings: Brain hearth Bouillon, 24-48 hours, 37° C., inoculum 10^-5 -10^-6 cfu/mL
Source text: as §7

[19] = system: Bacillus cereus NCTC 10320; test: as above; assay type: cell-based; settings: NCTC10320, Brain hearth Bouillon, 24-48 hours, 37° C., inoculum 10^-5 -10^-6 cfu/mL
Source text: as §7

[20] = system: Escherichia coli ATCC 10536; test: as above; assay type: cell-based; settings: ATCC10536, Brain hearth Bouillon, 24-48 hours, 37° C., inoculum 10^-5 -10^-6 cfu/mL
Source text: as §7

[21] = system: Bacillus pumilus NCTC 8241; test: as above; assay type: cell-based; settings: NCTC8241, Brain hearth Bouillon, 24-48 hours, 37° C., inoculum 10^-5 -10^-6 cfu/mL
Source text: as §7

[22] = system: Pseudomonas aeruginosa NCTC 10490; test: as above; assay type: cell-based; settings: NCTC10490, Brain hearth Bouillon, 24-48 hours, 37° C., inoculum 10^-5 -10^-6 cfu/mL
Source text: as §7

[23] = system: Sarcina lutea ATCC 9341; test: as above; assay type: cell-based; settings: Micrococcus luteus, ATCC9341; Brain hearth Bouillon, 24-48 hours, 37° C., inoculum 10^-5 -10^-6 cfu/mL
Source text: as §7

[24] = system: Bacillus subtilis NCTC 8241; test: as above; assay type: cell-based; settings: Bacillus subtilis, NCTC8241; Brain hearth Bouillon, 24-48 hours, 37° C., inoculum 10^-5 -10^-6 cfu/mL
Source text: as §7

[25] = in comparison with the parent antibiotic (erythromycin A); cited from earlier work
[26] = system: gram-negative microorganisms; settings: in comparison with the parent antibiotic (erythromycin A); cited from earlier work
[27] = system: gram-positive microorganisms; settings: in comparison to erythromycin A; cited from earlier work
[28] = read-out: MBC (Minimal Bactericidal Concentration)
[29] = read-out: MIC (Minimal Inhibitory Concentration)
[30] = read-out: MBC (Minimal Bactericidal Concentation)
[31] = Brain hearth Bouillon, 24-48 hours, 37° C., inoculum 10^-5 -10^-6 cfu/mL, read-out: MIC

SMILES: CC[C@H]1OC(=O)[C@H](C)[C@@H](O[C@H]2C[C@@](C)(OC)[C@@H](O)[C@H](C)O2)[C@H](C)[C@@H](O[C@@H]2O[C@H](C)C[C@H](N(C)C)[C@H]2O)[C@](C)(O)C[C@@H](C)C(=O)[C@H](C)[C@@H](O)[C@]1(C)O [Erythromycin A, reference compound]
MBC [1, 28]: 0.4 mg/L (≈ 0.545 µM)
MIC [1, 29]: 0.2 mg/L (≈ 0.273 µM)
MBC [2, 28]: > 50 mg/L
MIC [2, 29]: 50 mg/L (≈ 68.1 µM)
MBC [3, 28]: > 50 mg/L
MIC [3, 29]: > 50 mg/L
MBC [4, 28]: 0.8 mg/L (≈ 1.09 µM)
MIC [4, 29]: 0.2 mg/L (≈ 0.273 µM)
MBC [5, 28]: 0.8 mg/L (≈ 1.09 µM)
MIC [5, 29]: 0.2 mg/L (≈ 0.273 µM)
MBC [6, 28]: > 50 mg/L
MIC [6, 29]: > 50 mg/L
behaviour in acidic medium ([7]; acidic medium): easily converted into anhydroerythromycin
MBC [8, 30]: 0.8 mg/L (≈ 1.09 µM)
MIC [8, 29]: 0.4 mg/L (≈ 0.545 µM)
MBC [9, 30]: 3.1 mg/L (≈ 4.22 µM)
MIC [9, 29]: 0.8 mg/L (≈ 1.09 µM)
MBC [10, 30]: 0.2 mg/L (≈ 0.273 µM)
MIC [10, 29]: 0.1 mg/L (≈ 0.136 µM)
MBC [11, 30]: 0.4 mg/L (≈ 0.545 µM)
MIC [11, 29]: 0.1 mg/L (≈ 0.136 µM)
MBC [12, 30]: 0.2 mg/L (≈ 0.273 µM)
MIC [12, 29]: 0.05 mg/L (≈ 0.0681 µM)
MBC [13, 30]: 0.4 mg/L (≈ 0.545 µM)
MIC [13, 29]: 0.1 mg/L (≈ 0.136 µM)

MIC [14, 31]: 1.56 mg/L (≈ 2.01 µM)
MIC [15]: 0.78 mg/L (≈ 1 µM)
MIC [16]: 12.5 mg/L (≈ 16.1 µM)
MIC [17]: 1.56 mg/L (≈ 2.01 µM)
MIC [18]: 0.78 mg/L (≈ 1 µM)
MIC [19]: 1.56 mg/L (≈ 2.01 µM)
MIC [20]: 6.25 mg/L (≈ 8.04 µM)
MIC [21]: 0.78 mg/L (≈ 1 µM)
MIC [22]: 100 mg/L (≈ 129 µM)
MIC [23]: 0.05 mg/L (≈ 0.0643 µM)
MIC [24]: 0.78 mg/L (≈ 1 µM)
SMILES: CC[C@H]1OC(=O)[C@H](C)[C@@H](O[C@H]2C[C@@](C)(OC)[C@@H](O)[C@H](C)O2)[C@H](C)[C@@H](O[C@@H]2O[C@H](C)C[C@H](N(C)C)[C@H]2O)[C@](C)(OC)C[C@@H](C)CN(C)[C@H](C)[C@@H](OC)[C@]1(C)O [Ij, 6,11-Di-O-Methyl-azithromycin A]

MIC [14, 31]: 3.12 mg/L (≈ 3.95 µM)
MIC [15]: 0.78 mg/L (≈ 0.986 µM)
MIC [16]: 25 mg/L (≈ 31.6 µM)
MIC [17]: 3.12 mg/L (≈ 3.95 µM)
MIC [18]: 3.12 mg/L (≈ 3.95 µM)
MIC [19]: 3.12 mg/L (≈ 3.95 µM)
MIC [20]: 6.25 mg/L (≈ 7.9 µM)
MIC [21]: 3.12 mg/L (≈ 3.95 µM)
MIC [22]: 200 mg/L (≈ 253 µM)
MIC [23]: 0.05 mg/L (≈ 0.0632 µM)
MIC [24]: 3.12 mg/L (≈ 3.95 µM)
SMILES: CC[C@H]1OC(=O)[C@H](C)[C@@H](O[C@H]2C[C@@](C)(OC)[C@@H](OC)[C@H](C)O2)[C@H](C)[C@@H](O[C@@H]2O[C@H](C)C[C@H](N(C)C)[C@H]2O)[C@](C)(OC)C[C@@H](C)CN(C)[C@H](C)[C@@H](OC)[C@]1(C)O [Il, 6,11,4"Tri-O-Methyl-azithromycin A]

SMILES: CC[C@H]1OC(=O)[C@H](C)[C@@H](O[C@H]2C[C@@](C)(OC)[C@@H](O)[C@H](C)O2)[C@H](C)[C@@H](O[C@@H]2O[C@H](C)C[C@H](N(C)C)[C@H]2O)[C@](C)(O)C[C@@H](C)CN(C)[C@H](C)[C@@H](O)[C@]1(C)O [azithromycin, N-methyl-11-aza-10-deoxo-10-dihydroerythromycin A (9-deoxo-9a-aza-9a-methyl-9a-homoerythromycin A)]
concentration in the tissues [25]: significantly higher conncentration in the tissues
MIC [14]: 1.56 mg/L (≈ 2.08 µM)
in vitro activity against gram-negative microorganisms [26]: improved in vitro activity against gram-negative microorganisms
MIC [15]: 0.05 mg/L (≈ 0.0668 µM)
MIC [16]: 6.25 mg/L (≈ 8.34 µM)
MIC [17]: 0.1 mg/L (≈ 0.134 µM)
MIC [18]: 0.39 mg/L (≈ 0.521 µM)
MIC [19]: 0.39 mg/L (≈ 0.521 µM)
MIC [20]: 0.78 mg/L (≈ 1.04 µM)
MIC [21]: 0.2 mg/L (≈ 0.267 µM)
MIC [22]: 100 mg/L (≈ 134 µM)
MIC [23]: 0.05 mg/L (≈ 0.0668 µM)
MIC [24]: 0.39 mg/L (≈ 0.521 µM)
stability in acidic medium in comparison with the parent antibiotic ([7]; versus erythromycin A): improved stability in acidic medium

SMILES: CC[C@H]1OC(=O)[C@H](C)[C@@H](O[C@H]2C[C@@](C)(OC)[C@@H](O)[C@H](C)O2)[C@H](C)[C@@H](O[C@@H]2O[C@H](C)C[C@H](N(C)C)[C@H]2O)[C@](C)(OC)C[C@@H](C)C(=O)[C@H](C)[C@@H](O)[C@]1(C)O [clarithromycin, 6-O-methyl-erythromycin A]
in vitro activity against gram-positive microorganisms [27]: improved in vitro activity against gram-positive microorganisms
